{
  "source": "patent US10000483B2",
  "about": "“Bone marrow on X chromosome kinase (BMX) inhibitors and uses thereof” (Dana-Farber Cancer Institute, Inc., priority 2012, dated 2018)",
  "key": {"FLT3(ITD)": {"test_system": "FLT3(ITD)", "assay": "Kinase panel at 1 uM (Table 9)", "assay_type": "binding", "quoted_text": "(§3) Screening hits are identified by measuring the amount of protein captured in test versus control samples by using a quantitative, precise, and ultra-sensitive qPCR method that detects the associated DNA label."}, "ITK [1]": {"target": "T1, ITK (Homo sapiens (Human), UniProt Q08881)", "T1 sequence (Q08881 whole entry)": "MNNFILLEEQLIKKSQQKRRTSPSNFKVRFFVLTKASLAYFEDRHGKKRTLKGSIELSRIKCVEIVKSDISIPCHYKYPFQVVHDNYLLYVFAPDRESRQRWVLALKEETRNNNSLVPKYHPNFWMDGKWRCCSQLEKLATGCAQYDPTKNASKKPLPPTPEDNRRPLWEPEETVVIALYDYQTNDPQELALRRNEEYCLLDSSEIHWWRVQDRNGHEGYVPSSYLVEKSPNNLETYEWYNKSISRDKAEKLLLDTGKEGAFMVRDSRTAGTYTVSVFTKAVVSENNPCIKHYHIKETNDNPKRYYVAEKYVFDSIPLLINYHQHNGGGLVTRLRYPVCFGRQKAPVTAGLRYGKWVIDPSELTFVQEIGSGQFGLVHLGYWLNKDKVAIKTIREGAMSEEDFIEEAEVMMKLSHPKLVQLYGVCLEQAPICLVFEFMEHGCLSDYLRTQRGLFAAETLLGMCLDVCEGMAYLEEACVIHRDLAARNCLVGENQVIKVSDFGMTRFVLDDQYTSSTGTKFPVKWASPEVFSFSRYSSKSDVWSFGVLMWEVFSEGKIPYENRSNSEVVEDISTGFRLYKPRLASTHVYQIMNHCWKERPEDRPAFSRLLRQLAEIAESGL", "assay": "Invitrogen Select Screening in vitro kinase assay", "assay_type": "biochemical"}, "TEC [2]": {"target": "T2, TEC (Homo sapiens (Human), UniProt P42680)", "T2 sequence (P42680 whole entry)": "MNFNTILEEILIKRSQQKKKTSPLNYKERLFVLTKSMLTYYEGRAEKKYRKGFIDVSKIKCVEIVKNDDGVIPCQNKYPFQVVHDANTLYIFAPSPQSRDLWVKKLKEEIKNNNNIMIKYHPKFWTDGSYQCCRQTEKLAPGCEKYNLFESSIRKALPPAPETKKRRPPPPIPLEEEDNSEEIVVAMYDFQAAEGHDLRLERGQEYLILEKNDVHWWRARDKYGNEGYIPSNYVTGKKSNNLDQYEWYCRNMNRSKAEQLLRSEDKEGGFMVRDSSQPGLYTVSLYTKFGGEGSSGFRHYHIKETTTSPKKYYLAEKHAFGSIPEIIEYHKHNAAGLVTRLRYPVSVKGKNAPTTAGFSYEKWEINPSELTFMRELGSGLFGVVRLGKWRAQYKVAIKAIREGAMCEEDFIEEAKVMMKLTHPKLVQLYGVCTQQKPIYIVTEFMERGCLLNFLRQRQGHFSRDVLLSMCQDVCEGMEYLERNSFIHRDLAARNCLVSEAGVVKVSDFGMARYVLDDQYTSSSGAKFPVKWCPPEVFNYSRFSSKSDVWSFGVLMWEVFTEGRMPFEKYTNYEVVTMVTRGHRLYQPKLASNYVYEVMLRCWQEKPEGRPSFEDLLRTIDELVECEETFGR", "assay": "DiscoverX binding assay", "quoted_text": "as §3"}, "[3]": {"test_system": "TEL-BMX transformed Ba/F3 cells", "assay": "cells", "conditions": "Mus musculus, BaF3, read-out: GI50, TEL-BMX"}, "OCI-Ly19 cells": {"test_system": "OCI-Ly19 cells", "assay": "Cell proliferation analysis for WM and lymphoma cell lines (CellTiter-Glo)", "assay_type": "cell-based", "conditions": "Homo sapiens, 72 hours", "method": "(§4) Various cell lines were used including Waldenström's macroglobulinemia (WM) cell lines (BCWM.1, MWCL-1, RPCI-WM1) and B-cell lymphoma cell lines (OCI-Ly3, Ramos, OCI-Ly19). Cells were seeded into 384 well plates with the EL406 Combination Washer Dispenser (BioTek Instruments, Inc.) and inhibitor compounds were injected into the cells culture media with the JANUS Automated Workstation (PerkinElmer Inc.)."}, "VACP cells": {"test_system": "VACP cells", "assay": "cells", "conditions": "read-out: GI50, VACP", "method": "(§5) Data were normalized to control group (DMSO) and represented by the mean of at least two independent measurement with standard error <20%. GI50 were calculated using Prism 5.0 (GraphPad Software, San Diego, Calif.)."}, "YSK4": {"target": "YSK4 (Homo sapiens (Human), UniProt Q56UN5)", "sequence (Q56UN5 whole entry)": "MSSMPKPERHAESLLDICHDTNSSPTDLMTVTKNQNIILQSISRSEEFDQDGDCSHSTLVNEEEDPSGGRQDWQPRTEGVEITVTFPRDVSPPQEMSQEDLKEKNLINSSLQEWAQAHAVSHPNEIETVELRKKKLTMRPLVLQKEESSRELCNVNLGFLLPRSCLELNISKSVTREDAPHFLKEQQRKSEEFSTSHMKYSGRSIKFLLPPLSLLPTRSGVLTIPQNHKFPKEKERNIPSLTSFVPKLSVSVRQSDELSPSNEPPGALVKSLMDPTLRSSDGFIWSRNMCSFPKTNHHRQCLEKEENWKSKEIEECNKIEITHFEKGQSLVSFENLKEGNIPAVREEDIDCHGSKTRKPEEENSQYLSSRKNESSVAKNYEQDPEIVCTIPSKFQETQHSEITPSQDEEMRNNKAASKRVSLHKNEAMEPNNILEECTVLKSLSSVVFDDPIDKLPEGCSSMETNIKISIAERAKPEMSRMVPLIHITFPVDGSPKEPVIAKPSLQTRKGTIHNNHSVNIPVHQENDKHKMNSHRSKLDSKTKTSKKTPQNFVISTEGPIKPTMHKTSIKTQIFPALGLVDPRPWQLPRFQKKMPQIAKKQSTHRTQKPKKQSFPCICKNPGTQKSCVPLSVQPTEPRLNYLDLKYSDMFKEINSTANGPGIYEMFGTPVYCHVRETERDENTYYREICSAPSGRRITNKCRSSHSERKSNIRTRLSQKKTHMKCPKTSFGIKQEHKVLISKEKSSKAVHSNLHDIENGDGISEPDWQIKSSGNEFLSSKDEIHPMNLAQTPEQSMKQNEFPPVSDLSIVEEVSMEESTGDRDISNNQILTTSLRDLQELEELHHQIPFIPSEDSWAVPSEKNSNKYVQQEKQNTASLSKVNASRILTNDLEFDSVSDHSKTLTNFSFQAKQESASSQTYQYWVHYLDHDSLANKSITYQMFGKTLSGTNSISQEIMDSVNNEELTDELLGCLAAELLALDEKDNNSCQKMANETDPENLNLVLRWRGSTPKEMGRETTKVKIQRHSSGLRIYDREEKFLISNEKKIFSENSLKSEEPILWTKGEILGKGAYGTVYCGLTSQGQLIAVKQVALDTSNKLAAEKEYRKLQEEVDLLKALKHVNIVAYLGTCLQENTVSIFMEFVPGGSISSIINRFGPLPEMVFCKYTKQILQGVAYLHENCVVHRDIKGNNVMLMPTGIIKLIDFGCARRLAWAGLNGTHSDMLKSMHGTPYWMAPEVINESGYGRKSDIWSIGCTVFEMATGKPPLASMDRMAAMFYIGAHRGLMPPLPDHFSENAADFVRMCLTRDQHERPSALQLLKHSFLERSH", "assay": "Kinase panel at 1 uM (Table 9)", "assay_type": "binding", "conditions": "read-out: % inhibition at 1 uM, YSK4", "quoted_text": "as §3"}, "CSNK2A2": {"target": "CSNK2A2 (Homo sapiens (Human), UniProt P19784)", "sequence (P19784 whole entry)": "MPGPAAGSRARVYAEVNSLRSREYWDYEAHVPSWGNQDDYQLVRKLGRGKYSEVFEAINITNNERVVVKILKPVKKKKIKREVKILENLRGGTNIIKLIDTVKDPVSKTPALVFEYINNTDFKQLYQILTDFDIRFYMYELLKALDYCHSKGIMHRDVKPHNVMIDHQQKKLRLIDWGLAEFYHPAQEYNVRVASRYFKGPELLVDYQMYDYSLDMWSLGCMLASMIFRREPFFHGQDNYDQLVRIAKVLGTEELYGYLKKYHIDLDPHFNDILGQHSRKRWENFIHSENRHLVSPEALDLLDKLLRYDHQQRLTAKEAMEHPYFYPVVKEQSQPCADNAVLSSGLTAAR", "assay": "Kinase panel at 1 uM (Table 9)", "assay_type": "binding", "conditions": "read-out: % inhibition at 1 uM, CSNK2A2", "quoted_text": "as §3"}, "PIK3CG": {"target": "PIK3CG (Homo sapiens (Human), UniProt P48736)", "assay": "Kinase panel at 1 uM (Table 9)", "assay_type": "binding", "conditions": "read-out: % inhibition at 1 uM, PIK3CG", "quoted_text": "as §3"}, "MKNK2": {"target": "MKNK2 (Homo sapiens (Human), UniProt Q9HBH9)", "assay": "Kinase panel at 1 uM (Table 9)", "assay_type": "binding", "conditions": "read-out: % inhibition at 1 uM, MKNK2", "quoted_text": "as §3"}, "mTOR [4]": {"target": "T3, mTOR (Homo sapiens (Human), UniProt P42345)", "assay": "DiscoverX binding assay", "conditions": "read-out: % inhibition at 1 uM, MTOR", "quoted_text": "as §3"}, "FAK pY576/577": {"test_system": "FAK pY576/577", "assay": "FAK pYpY phosphorylation blot in RV1 cells cotransfected with BMX and FAK", "assay_type": "cell-based", "conditions": "FIG. 17"}, "WT-Ba/F3 cells": {"test_system": "WT-Ba/F3 cells", "assay": "cells", "conditions": "Mus musculus, BaF3, read-out: GI50, WT-Ba/F3"}, "TEC [5]": {"target": "T2, TEC", "assay": "Invitrogen Select Screening in vitro kinase assay", "assay_type": "biochemical", "from_the_text": "(§1) The in vitro activity of compounds of Formula (I) and (II) in inhibiting BMX and other kinases were obtained using an Invitrogen Select Screening assay as known in the art. The IC50 values determined from this assay are shown below."}, "mTOR [6]": {"target": "T3, mTOR", "assay": "Invitrogen Select Screening in vitro kinase assay", "assay_type": "biochemical", "from_the_text": "as §1"}, "BLK": {"target": "BLK (Homo sapiens (Human), UniProt P51451)", "assay": "Invitrogen Select Screening in vitro kinase assay", "assay_type": "biochemical", "from_the_text": "as §1"}, "ITK [7]": {"target": "T1, ITK", "assay": "DiscoverX binding assay", "quoted_text": "as §3"}, "[8]": {"test_system": "TEL-JAK1 transformed Ba/F3 cells", "assay": "cells", "conditions": "Mus musculus, BaF3, read-out: GI50, TEL-JAK1"}, "OCI-Ly3 cells": {"test_system": "OCI-Ly3 cells", "assay": "Cell proliferation analysis for WM and lymphoma cell lines (CellTiter-Glo)", "assay_type": "cell-based", "conditions": "Homo sapiens, 72 hours", "method": "as §4"}, "RV1 cells": {"test_system": "RV1 cells", "assay": "Prostate cancer cell apoptosis, cleaved caspase 3", "assay_type": "cell-based", "from_the_text": "Caspase-3 positive cells were counted and normalized to total cell number (N=5)."}, "C4-2 cells": {"test_system": "C4-2 cells", "assay": "cells", "conditions": "C4-2, read-out: GI50, C4-2", "method": "as §5"}, "wild-type (WT) BMX": {"target": "wild-type (WT) BMX (Homo sapiens (Human), UniProt P51813)", "assay": "IP kinase assay, BMX autophosphorylation", "assay_type": "biochemical", "conditions": "FIG. 15", "from_the_text": "(§2) FIG. 15 confirms that the potency of the BMX inhibitors is due to covalent binding to cysteine 496."}, "BMX (C496S)": {"target": "BMX (C496S) (Homo sapiens (Human), UniProt P51813, C496S)", "assay": "IP kinase assay, BMX autophosphorylation", "assay_type": "biochemical", "conditions": "FIG. 15A", "from_the_text": "as §2"}, "CLK2": {"target": "CLK2 (Homo sapiens (Human), UniProt P49760)", "assay": "DiscoverX binding assay", "conditions": "read-out: % inhibition at 1 uM, CLK2", "quoted_text": "as §3"}, "BCWM.1 cells": {"test_system": "BCWM.1 cells", "assay": "Cell proliferation analysis for WM and lymphoma cell lines (CellTiter-Glo)", "assay_type": "cell-based", "conditions": "BCWM1; 72 hours", "method": "as §4"}, "BMX": {"target": "BMX (Homo sapiens (Human), UniProt P51813)", "assay": "BMX protein levels in RV-1 cells", "assay_type": "cell-based", "conditions": "72 h treatment, 5 μM", "from_the_text": "Moreover, the depletion could be rescued upon stable overexpression of the C496S mutant BMX."}, "PIK4CB": {"target": "PIK4CB (Homo sapiens (Human), UniProt Q9UBF8)", "assay": "Kinase panel at 1 uM (Table 9)", "assay_type": "binding", "conditions": "read-out: % inhibition at 1 uM, PIK4CB", "quoted_text": "as §3"}, "CLK1": {"target": "CLK1 (Homo sapiens (Human), UniProt P49759)", "sequence (P49759 whole entry)": "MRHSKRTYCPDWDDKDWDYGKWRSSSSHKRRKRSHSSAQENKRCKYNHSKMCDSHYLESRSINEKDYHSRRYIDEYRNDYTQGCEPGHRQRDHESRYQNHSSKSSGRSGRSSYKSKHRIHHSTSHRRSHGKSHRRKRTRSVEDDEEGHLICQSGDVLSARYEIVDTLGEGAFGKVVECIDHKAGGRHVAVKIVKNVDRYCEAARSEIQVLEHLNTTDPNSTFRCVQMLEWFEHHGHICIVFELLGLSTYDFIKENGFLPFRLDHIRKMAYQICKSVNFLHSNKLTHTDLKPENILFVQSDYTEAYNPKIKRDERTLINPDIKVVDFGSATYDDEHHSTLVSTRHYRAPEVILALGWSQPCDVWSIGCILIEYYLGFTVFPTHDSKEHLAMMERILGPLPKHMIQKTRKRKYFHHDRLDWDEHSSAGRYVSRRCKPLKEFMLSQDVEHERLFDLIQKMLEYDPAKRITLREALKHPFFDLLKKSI", "assay": "DiscoverX binding assay", "conditions": "read-out: % inhibition at 1 uM, CLK1", "quoted_text": "as §3"}, "DYRK1B": {"target": "DYRK1B (Homo sapiens (Human), UniProt Q9Y463)", "sequence (Q9Y463 whole entry)": "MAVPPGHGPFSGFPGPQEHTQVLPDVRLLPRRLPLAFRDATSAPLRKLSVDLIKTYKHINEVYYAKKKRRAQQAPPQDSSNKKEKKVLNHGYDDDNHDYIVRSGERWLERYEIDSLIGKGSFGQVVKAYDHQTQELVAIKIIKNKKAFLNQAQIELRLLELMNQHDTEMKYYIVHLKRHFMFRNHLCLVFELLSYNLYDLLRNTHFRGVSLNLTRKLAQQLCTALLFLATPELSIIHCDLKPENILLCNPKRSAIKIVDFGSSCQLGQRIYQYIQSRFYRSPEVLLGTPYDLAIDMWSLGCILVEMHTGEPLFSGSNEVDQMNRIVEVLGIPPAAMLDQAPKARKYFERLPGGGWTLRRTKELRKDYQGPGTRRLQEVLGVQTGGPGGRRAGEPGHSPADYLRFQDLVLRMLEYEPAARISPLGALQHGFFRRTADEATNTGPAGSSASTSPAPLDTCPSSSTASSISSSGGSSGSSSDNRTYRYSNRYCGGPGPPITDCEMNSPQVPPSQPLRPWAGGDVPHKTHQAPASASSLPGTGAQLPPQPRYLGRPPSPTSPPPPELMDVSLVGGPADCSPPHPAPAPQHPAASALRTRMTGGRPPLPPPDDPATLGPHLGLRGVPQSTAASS", "assay": "Kinase panel at 1 uM (Table 9)", "assay_type": "binding", "conditions": "read-out: % inhibition at 1 uM, DYRK1B", "quoted_text": "as §3"}, "mTORC1": {"target": "mTORC1 (Homo sapiens (Human), UniProt P42345)", "assay": "Invitrogen Select Screening in vitro kinase assay", "assay_type": "biochemical"}, "JNK3": {"target": "JNK3 (Homo sapiens (Human), UniProt P53779)", "assay": "Kinase panel at 1 uM (Table 9)", "assay_type": "binding", "conditions": "read-out: % inhibition at 1 uM, JNK3", "quoted_text": "as §3"}, "DU-145 cells": {"test_system": "DU-145 cells", "assay": "cells", "conditions": "Homo sapiens, DU-145, read-out: GI50, DU-145", "method": "as §5"}, "MWCL-1 cells": {"test_system": "MWCL-1 cells", "assay": "Cell proliferation analysis for WM and lymphoma cell lines (CellTiter-Glo)", "assay_type": "cell-based", "conditions": "72 hours", "method": "as §4"}, "TAK1": {"target": "TAK1 (Homo sapiens (Human), UniProt O43318)", "sequence (O43318 whole entry)": "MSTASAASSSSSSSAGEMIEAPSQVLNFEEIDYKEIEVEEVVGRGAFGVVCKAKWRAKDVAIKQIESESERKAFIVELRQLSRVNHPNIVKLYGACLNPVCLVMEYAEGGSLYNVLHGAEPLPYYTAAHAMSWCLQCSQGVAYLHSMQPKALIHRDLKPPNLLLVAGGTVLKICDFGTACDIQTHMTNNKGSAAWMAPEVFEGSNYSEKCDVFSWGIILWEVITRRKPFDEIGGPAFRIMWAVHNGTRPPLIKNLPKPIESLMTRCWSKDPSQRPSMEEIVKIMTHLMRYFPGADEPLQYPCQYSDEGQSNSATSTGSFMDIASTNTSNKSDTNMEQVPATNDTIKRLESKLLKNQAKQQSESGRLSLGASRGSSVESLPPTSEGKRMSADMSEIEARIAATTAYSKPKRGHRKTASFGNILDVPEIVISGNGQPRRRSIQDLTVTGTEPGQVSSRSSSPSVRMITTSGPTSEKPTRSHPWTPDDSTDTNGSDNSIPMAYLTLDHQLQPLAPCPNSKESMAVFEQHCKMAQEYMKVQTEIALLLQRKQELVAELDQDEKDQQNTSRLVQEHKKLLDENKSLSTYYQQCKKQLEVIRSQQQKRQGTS", "assay": "Kinase panel at 1 uM (Table 9)", "assay_type": "binding", "conditions": "read-out: % inhibition at 1 uM, TAK1", "quoted_text": "as §3"}, "RV-1 cells": {"test_system": "RV-1 cells", "assay": "Anti-proliferation assay for prostate cancer cells (CellTiter-Glo)", "assay_type": "cell-based", "method": "as §5"}, "IRAK3": {"target": "IRAK3 (Homo sapiens (Human), UniProt Q9Y616)", "assay": "Kinase panel at 1 uM (Table 9)", "assay_type": "binding", "conditions": "read-out: % inhibition at 1 uM, IRAK3", "quoted_text": "as §3"}},
  "note": "pEC50, pIC50: −log10 of the molar value.",
  "data": [
    {"smiles": "C=CC(=O)Nc1cc(-n2c(=O)ccc3cnc4ccc(-c5ccc(NS(C)(=O)=O)cc5)cc4c32)ccc1C", "note": "[I-14]", "values": [
      {"measurement": "% inhibition at 1 uM, FLT3(ITD)", "setting": "FLT3(ITD)", "result": 99, "unit": "%"},
      {"measurement": "pIC50", "setting": "ITK [1]", "result": 5.28},
      {"measurement": "Percent Control, TEC", "setting": "TEC [2]", "result": 27, "unit": "%"},
      {"measurement": "GI50", "setting": "[3]", "result": 25, "unit": "nM"},
      {"measurement": "pEC50", "setting": "OCI-Ly19 cells", "result": 6.05},
      {"measurement": "GI50", "setting": "VACP cells", "result": 2460, "unit": "nM"},
      {"measurement": "inhibition at 1 µM", "setting": "YSK4", "result": 100, "unit": "%"},
      {"measurement": "inhibition at 1 µM", "setting": "CSNK2A2", "result": 100, "unit": "%"},
      {"measurement": "inhibition at 1 µM", "setting": "PIK3CG", "result": 2.8, "unit": "%"},
      {"measurement": "inhibition at 1 µM", "setting": "MKNK2", "result": 100, "unit": "%"},
      {"measurement": "inhibition at 1 µM", "setting": "mTOR [4]", "result": 45, "unit": "%"},
      {"measurement": "BMX mediated phosphorylation of pYpY site on FAK", "setting": "FAK pY576/577", "result": "inhibits BMX mediated phosphorylation of pYpY site on FAK"},
      {"measurement": "GI50", "setting": "WT-Ba/F3 cells", "result": "> 10", "unit": "µM"},
      {"measurement": "pIC50", "setting": "TEC [5]", "result": 6.19},
      {"measurement": "pIC50", "setting": "mTOR [6]", "result": 6.49},
      {"measurement": "pIC50", "setting": "BLK", "result": 6.42},
      {"measurement": "Percent Control, ITK", "setting": "ITK [7]", "result": 52, "unit": "%"},
      {"measurement": "GI50", "setting": "[8]", "result": 4.92, "unit": "µM"},
      {"measurement": "pEC50", "setting": "OCI-Ly3 cells", "result": "< 4.70"},
      {"measurement": "cell numbers and apoptosis by Caspase 3 staining", "setting": "RV1 cells; 5 pM concentration (so in the source)", "result": "reduced cell numbers and induced apoptosis"},
      {"measurement": "concentration causing apoptosis based on increased cleaved caspase 3", "setting": "RV1 cells; FIG. 18C", "result": "10 to 20", "unit": "µM"},
      {"measurement": "GI50", "setting": "C4-2 cells", "result": "> 10", "unit": "µM"},
      {"measurement": "concentration inhibiting autophosphorylation of wild-type BMX", "setting": "wild-type (WT) BMX", "result": "10 to 100", "unit": "nM"},
      {"measurement": "concentration inhibiting autophosphorylation of BMX (C496S)", "setting": "BMX (C496S)", "result": "> 10,000 nM"},
      {"measurement": "inhibition at 1 µM", "setting": "CLK2", "result": 100, "unit": "%"},
      {"measurement": "pEC50", "setting": "BCWM.1 cells", "result": 5.96},
      {"measurement": "BMX protein levels in RV-1 cells", "setting": "BMX", "result": "significantly reduced"},
      {"measurement": "inhibition at 1 µM", "setting": "PIK4CB", "result": 79, "unit": "%"},
      {"measurement": "inhibition at 1 µM", "setting": "CLK1", "result": 95, "unit": "%"},
      {"measurement": "inhibition at 1 µM", "setting": "DYRK1B", "result": 100, "unit": "%"},
      {"measurement": "pIC50", "setting": "mTORC1", "result": 5.13},
      {"measurement": "inhibition at 1 µM", "setting": "JNK3", "result": 100, "unit": "%"},
      {"measurement": "GI50", "setting": "DU-145 cells", "result": 4.38, "unit": "µM"},
      {"measurement": "pEC50", "setting": "MWCL-1 cells", "result": 5.86},
      {"measurement": "inhibition at 1 µM", "setting": "TAK1", "result": 83, "unit": "%"},
      {"measurement": "GI50", "setting": "RV-1 cells; RV-1", "result": 2540, "unit": "nM"},
      {"measurement": "pIC50", "setting": "RV-1 cells; RV-1, 120 h, 5 day incubation", "result": 5.60},
      {"measurement": "inhibition at 1 µM", "setting": "IRAK3", "result": 73, "unit": "%"}
    ]}
  ]
}
